Test results: patent US20150080580A1, “THIOUREA DERIVATIVES AS a-CHYMOTRYPSIN INHIBITORS” (priority 2013, published 2015)

Assays:
α-Chymotrypsin [1] = molecular target: T1, α-Chymotrypsin (Bos taurus, UniProt P00766); assay: α-Chymotrypsin inhibition assay (SPpNA substrate, absorbance at 410 nm); type: biochemical, bovine; conditions: α-chymotrypsin, substrate SPpNA 0.4 mM, pH 7.6, 30° C., n = 3
T1 construct: purchased Sigma-Aldrich (USA) C4129; host or cells: bovine pancreas
Method: (§1) α-Chymotrypsin (bovine pancreas, C4129) and N-succinyl-L-phenylalanine-p-nitroaniline (S2628) were purchased from Sigma-Aldrich (USA). Chymostatin (152845) from MP Biomedicals, LLC, USA, Tris(hydroxymethyl)aminomethane from Scharlau Chemie Barcelona, Spain and all other reagents were obtained from E. Merck and were of analytical grade. All other solvents and reagents were of analytical grade and used directly without purification.
This was performed in 50 mM Tris-HCl buffer pH 7.6 with 10 mM CaCl2. α-Chymotrypsin (12 units/mL prepared in 50 mM Tris-HCl buffer) with the different concentration of test compounds prepared in DMSO. It was then incubated at 30° C. for 25 min. The reaction was started by the addition of the substrate, N-succinyl-L-phenylalanine-p-nitroanilide (final concentration of 0.4 mM, prepared in the buffer as mentioned above). The change in absorbance due to released p-nitroaniline was continuously monitored at 410 nm (Choudhary et al., 2011). All the experiments were in a final volume of 200 μL in triplicate, and data was taken using a micro-plate reader (SpectraMax M2, Molecular Devices, Calif., USA).
The results were processed by using SoftMax Pro 4.8 then analyzed by MS Excel software. The % of inhibition based upon initial velocity and calculated as: […]
IC50 (Inhibition of enzymatic hydrolysis of the substrate SPpNA by 50%) value was calculated using EZ-Fit software (Perellela Scientific, Inc., Amherst, Mars, USA).

α-Chymotrypsin [2] = molecular target: T1, α-Chymotrypsin; assay: α-Chymotrypsin inhibition kinetic study (Lineweaver-Burk, Dixon, Hanes-Woolf plots); type: biochemical, bovine
Description: as §1
The change in concentration of the substrate/product (rate of reaction) was measured as optical density per minute (OD/min). This OD/min was obtained by incorporating different concentrations of compounds over substrate (SPpNA) concentrations between 0.4 mM and 3.2 mM in micro-plate reader. Reciprocal of OD/min against the reciprocal of the substrate concentration, defined as Lineweaver-Burk plot (and its secondary plot; slope vs compound concentration); the Dixon plot (and its secondary plot; slope vs reciprocal of compound concentration) and then Hanes-Woolf plot were plotted (Lineweaver et al., 1934; Dixon, 1953; Segel, 1993) Graphs were plotted using GraFit 4 (Erithacus Software Limited, Surrey, UK) and GraphPad Prism 5 (GraphPad Software, California, USA). The types of inhibition were determined by the graphical views of Dixon plots, Lineweaver-Burk plots and their secondary plots as well as Hanes-Woolf plot. The Ki values, obtained directly from the software, also were cross-checked and tallied in these graphs. Final concentration of DMSO was maintained 5.5%.

[3] = Cell proliferation inhibition (cytotoxicity) MTT assay for 3T3 cell line; type: cell-based, Mouse; conditions: 3T3 mouse fibroblast cells; 3T3 mouse fibroblasts, MTT, 72 hrs, n = 3; read-out: 3T3 cell-line GI50 ± SEM
Method: (§2) It was evaluated by using the MTT (3-[4,5-dimethylthiazole-2-yl]-2,5-diphenyl-tetrazolium bromide) assay (Mosmann, 1983). The 3T3 cell-lines (Mouse Fibroblasts) were cultured in Dulbecco's Modified Eagle's Medium, which was later supplemented with 5% of bovine serum, 100 IU/mL of penicillin, and 100 μg/mL of streptomycin, in 5% CO2 incubator at 37° C. Exponentially growing cell, 1×10^4 cells/well incorporated into each well of 96-well plates. Then, fresh the medium containing different concentrations of compounds were loaded in each well after 24 hours. Again, after 72 hrs, fresh the medium containing 0.5 mg/mL MTT were loaded in each well, and incubated further for 4 hrs. Subsequently, the media containing MTT was replaced by 100 μL of DMSO for 15 min, and then the absorbance was taken at 570 nm.

3T3 cell line = assay: as above; type: cell-based, Mouse
Method: as §2

IC50 (α-Chymotrypsin [1]): 26.3 ± 4.9 µM
Type of inhibition (α-Chymotrypsin [2]; from Lineweaver-Burk, Dixon and Hanes-Woolf plots): Non- Competitive
Ki (α-Chymotrypsin [2]; substrate SPpNA 0.4-3.2 mM, n = 3, read-out: Ki ± SEM): 25.3 ± 4.6 µM
Structure (SMILES): COc1ccccc1NC(=S)Nc1cccc(Cl)c1 [Compound 5, 1-(3-Chlorophenyl)-3-(2-methoxyphenyl) thiourea]
GI50 at 72 h [3]: 10.7 ± 1.2 µM
growth inhibition for 3T3 cell lines (in words) (3T3 cell line): showed growth inhibition
